In data set [1] the test system is skin of volunteers, UVB. Nature of the data set: Effects of topical 0.35% rambazole on UVB-induced inflammation (chromametry). To be noted: topical 0.35% for 9 days, then 5 days UVB. Type of data set: in vivo, human. From the text:
In an investigator-blinded, placebo-controlled study, topical 0.35% rambazole was applied to the skin of volunteers for 9 days, followed by 5 days of induction of inflammation with UVB. Adapalene was used in the study as a standard anti-inflammatory agent.

In data set [2] the test system is moderate to severe plaque type psoriasis. Nature of the data set: Treatment of psoriasis with oral rambazole (PASI score). To be noted: for % PASI Score from Baseline: individual subjects. Format: in vivo, human. Here is the method: Seventeen patients with a Psoriasis Area and Severity Index (PASI) score of at least 5 (moderate to severe plaque type psoriasis) received a daily oral dose of 1 mg of rambazole. The evolution of the PASI score was monitored after 1, 2, 4 and 8 weeks of treatment and at the end of a 2-week follow-up period. […] Biopsies from lesions were taken and surface markers were analyzed.

Data set [3] relates to IL-12p40. Nature of the data set: IL-12 secretion by activated monocytes (IL-12p40 ELISA). Format: cell-based, human. To be noted: monocytes activated with Zymosan or 19 kDa lipoprotein for 18 h. Here is the method: Peripheral blood mononuclear cells (PBMC) were isolated from healthy donors by density gradient centrifugation on Ficoll-Hypaque Plus and monocytes were selected by adherence. After overnight culture in RPMI 1640 supplemented with […] FBS, monocytes were activated with Zymosan or 19 kDa lipoprotein for 18 h, and IL-12p40 was measured in the supernatant by ELISA.
On the technique in general: An ELISA detects its analyte on a solid surface through an enzyme-linked reagent.

The test system of data set [4] is SLS-induced irritant dermatitis. Nature of the data set: Irritant dermatitis induced by sodium lauryl sulfate (SLS). To be noted: 0.35% gel, 4 days pre-treatment and 5 days during 2% SLS; healthy volunteers. Format: in vivo, human. Here is the method: Rambazole (0.35%) gel was applied as a pre-treatment during four days. Inflammation was induced by applying 2% SLS during 2 hours in rings on the arm of twelve healthy volunteers once a day for five days. Rambazole (0.35%) gel was applied during the five days of induced inflammation. Skin reactions of non-treated and rambazole gel-treated skin sites were assessed 24 hours after each application with SLS and 72 hours after the last SLS application (visual scoring of redness, chromametry, TEWL).

In data set [5] the test system is mild to moderate acne vulgaris. Nature of the data set: Treatment of acne vulgaris with topical rambazole. Format: in vivo, human. To be noted: after 12 weeks; daily topical 0.35% rambazole.
The test system of data set [6] is Interleukin-1 (IL-1). The data set can be described thus: Expression of IL-1 in the skin of healthy volunteers (real-time PCR). Format: in vivo, human. Here is the method:
In this randomized, double-blind, left-right, placebo-controlled trial, the expression of Interleukin-1 (IL-1) in the skin of 15 healthy subjects was evaluated after a once daily application of rambazole gel at two different concentrations (0.35% or 0.07%) on intact skin for 9 days. The IL-1 biomarker was analyzed with real-time PCR.

Data set [7] deals with IL-1α. Nature of the data set: Expression of IL-1α, rambazole compared to retinoic acid (FIG. 2). Type of data set: in vivo, human. From the text:
Also unexpectedly, rambazole-treated lesions (such as, for example, psoriatic lesions) continue to improve and show reduced inflammatory patterns for at least 3 months after discontinuation of treatment. Further, in contrast with retinoids such as isotretinoin, rambazole-treated inflammatory lesions responded rapidly within the first 4 weeks of treatment. This finding supports an antiinflammatory action for rambazole in addition to the typical effects on proliferation and differentiation.

The structures appear in SMILES notation. Where “and” joins values, the source holds several entries; their conditions need not be identical. Identical values can stand only once. Entries after “also recorded” stand apart in the source; their conditions may differ.

We go through one compound from patent US20090298897A1, “Treatment of Inflammatory Disorders With Triazole Compounds” (priority 2006, published 2009).

In the case of `CCC(CC)C(c1ccc(Nc2nc3ccccc3s2)cc1)n1cncn1` (stereo not shown) [rambazole], the “phototoxicity (chromametry)” value in data set [1] is recorded as “no indication of phototoxicity”. In data set [2] (daily oral dose 1 mg, psoriasis patients), the “side effects / tolerability” value is on record as “mild to moderate; also recorded: well tolerated”. Also, the “time lesions continue to improve and show reduced inflammatory patterns after discontinuation of treatment” value in data set [2] (rambazole-treated lesions such as psoriatic lesions) is reported as “at least 3 months”. The “mean reduction in PASI score” value in data set [2] (subjects that completed 8 weeks of treatment, daily oral dose 1 mg) was 51.4%. The “% PASI Score from Baseline” value was 100% (4×) and 93% and 81% and 88% and 80% and 92% (2×) and 113% and 87% and 97% and 89% (2×) and 79% and 108% in data set [2] (week 1, 1 mg oral daily); 99% and 86% (2×) and 95% and 79% and 108% and 75% and 92% (2×) and 150% and 96% and 88% and 89% and 77% and 98% and 83% and 117% in data set [2] (week 2, 1 mg oral daily); 99% and 88% and 81% and 57% and 84% (2×) and 78% and 104% and 85% and 97% and 70% and 69% and 80% and 60% and 107% and 206% in data set [2] (week 4, 1 mg oral daily); 96% and 55% and 109% and 47% and 67% and 73% and 62% and 79% and 43% and 35% and 34% and 41% and 86% and 97% in data set [2] (week 8, 1 mg oral daily); 81% and 27% and 105% and 51% and 36% and 49% and 45% and 37% and 73% and 52% and 4% and 34% and 28% and 70% and 87% in data set [2] (week 10 (end of 2-week follow-up)). Moreover, the “IL-12 secretion (IL-12p40 in supernatant)” value in data set [3] is recorded as “dose-dependently suppressed; also recorded: suppression of IL-12”. The “inflammatory response induced by application of SLS (visual scoring of redness, chromametry, TEWL)” value in data set [4] is reported as “inhibits the inflammatory response”. In addition, the “reduction in global assessment score” value in data set [5] is listed as “approximately 40%”. The “skin reaction reported by one subject” value in data set [6] (0.35% rambazole, during one day after 8 days of treatment) was “mild itching”. Besides, in data set [6] (gel 0.35% or 0.07% once daily), the “local skin reactions during 9 days of treatment” value was “no itching, irritating, stinging, burning or vesiculation occurred”. For the same compound, the “IL-1 expression in skin” value in data set [6] (gel 0.35% or 0.07% once daily on intact skin for 9 days, healthy subjects) is reported as “dose-dependently decrease”. Moreover, in data set [7], the “expression of IL-1” value is recorded as “decrease the expression of IL-1”.
